{
  "source": "patent US7638554B2",
  "about": "“Flavanoids as chemotherapeutic, chemopreventive, and antiangiogenic agents” (SRI International, priority 2002, dated 2009)",
  "key": {"[1]": {"system": "MDA-MB-231 (ER−) breast cancer cell line", "assay": "Growth inhibition assay, MTT, MDA-MB-231 breast cancer cells", "type": "cell-based, human", "conditions": "Homo sapiens, MDA-MB-231, 192 h, eight days, average of at least two experiments", "method": "Compounds of the invention were tested for their ability to inhibit growth in two breast cancer cell lines, MCF-7 (ER+) and MDA-MB-231 (ER−).\nThe growth inhibition assays were conducted using routine methods. Briefly, the cells were seeded in 24-well plates at a density of 2000 cells per well in 200 μL of […] growth medium. To each well was added 10 μL of DMSO containing the dissolved test compound; final DMSO concentration in each well was not more than 0.5%. Each test compound was assayed at concentrations of 0.4, 2, 10, and 50 μM. The plates were incubated for eight days, with the media and test solutions replaced every third day. On Day 8, the viable cells were measured by the MTT assay, as described in Mosmann et al. (1983), “Rapid Colorimetric Assay for Cellular Growth and Survival: Application to Proliferation and Cytotoxicity,” J. Immunol. Method. 65:55-63. The optical density at 575 nm of each test well was measured and compared to that for control wells, and the data used to calculate the percentage of growth inhibition at different concentrations. The IC50 value (the concentration of growth inhibitor that results in 50% growth inhibition of the cells in culture relative to control cells not exposed to any growth inhibitor) was determined by plotting dose-response curves.\nThe calculated IC50 values are set forth in Table 1, with the results representing the average of at least two experiments conducted for each compound at each of the four concentrations."}, "[2]": {"system": "prostate cancer cell line LNCaP", "assay": "Growth inhibition, sulforhodamine-based protein determination, LNCaP", "type": "cell-based", "conditions": "Homo sapiens", "method": "(§1) The novel compound SR 13179 was assayed for its ability to inhibit growth in several cancer cell lines. The cell lines studied included breast cancer cell line MCF-7 (ER+); prostate cancer cell lines LNCaP, PC3, and DU145; lung cancer cell line A427; ovarian cancer cell lines IGROV1, OVCAR-3, OVCAR-4, OVCAR-5, OVCAR-8, and SK-OV-3; and colon cancer cell lines COLO 205, HCC-2998, HCT-116, HCT-15, HT29, KM12, AND SW-620.\n(§2) The growth assays for the breast cancer cell lines were conducted according to the method of Example 16. For the other cell lines, each assay was conducted with continuous exposure to the test compound at four log concentrations for six days, using a sulforhodamine-based protein determination to measure growth inhibition.\nThe procedure of Example 20 was used to evaluate the growth inhibitory effect of various compounds of the invention on LNCaP cells."}, "[3]": {"system": "prostate cancer cell line PC-3", "assay": "Growth inhibition, sulforhodamine-based protein determination, PC-3", "type": "cell-based", "conditions": "144 h; continuous exposure six days", "method": "as §1, §2"}, "[4]": {"system": "ovarian cancer cell line IGROV1", "assay": "Growth inhibition, sulforhodamine-based protein determination, IGROV1", "type": "cell-based", "conditions": "Homo sapiens, IGROV-1, 144 h; continuous exposure six days", "method": "as §1, §2"}, "[5]": {"system": "ovarian cancer cell line OVCAR-4", "assay": "Growth inhibition, sulforhodamine-based protein determination, OVCAR-4", "type": "cell-based", "conditions": "Homo sapiens, OVCAR-4, 144 h; continuous exposure six days", "method": "as §1, §2"}, "[6]": {"system": "ovarian cancer cell line OVCAR-5", "assay": "Growth inhibition, sulforhodamine-based protein determination, OVCAR-5", "type": "cell-based", "conditions": "Homo sapiens, OVCAR-5, 144 h; continuous exposure six days", "method": "as §1, §2"}, "[7]": {"system": "ovarian cancer cell line OVCAR-8", "assay": "Growth inhibition, sulforhodamine-based protein determination, OVCAR-8", "type": "cell-based", "conditions": "Homo sapiens, OVCAR-8, 144 h; continuous exposure six days", "method": "as §1, §2"}, "[8]": {"system": "ovarian cancer cell line SK-OV-3", "assay": "Growth inhibition, sulforhodamine-based protein determination, SK-OV-3", "type": "cell-based", "conditions": "Homo sapiens, SK-OV-3, 144 h; continuous exposure six days", "method": "as §1, §2"}, "[9]": {"system": "colon cancer cell line COLO 205", "assay": "Growth inhibition, sulforhodamine-based protein determination, COLO 205", "type": "cell-based", "conditions": "Homo sapiens, COLO 205, 144 h; continuous exposure six days", "method": "as §1, §2"}, "[10]": {"system": "colon cancer cell line HCT-15", "assay": "Growth inhibition, sulforhodamine-based protein determination, HCT-15", "type": "cell-based", "conditions": "Homo sapiens, HCT-15, 144 h; continuous exposure six days", "method": "as §1, §2"}, "[11]": {"system": "lung cancer cell line A427", "assay": "Growth inhibition, sulforhodamine-based protein determination, A427", "type": "cell-based", "conditions": "Homo sapiens, A-427, 144 h; continuous exposure six days", "method": "as §1, §2"}, "[12]": {"system": "MCF-10CA1a breast cancer cells", "assay": "Boyden-chamber Matrigel invasion/migration assay, MCF-10CA1a", "type": "cell-based, human", "method": "Cell Culture. MCF-10CA1a cells were cultured in Dulbecco's Modified Eagle Medium (DMEM) supplemented with 5% bovine serum, 2 mM glutamine and 1 mM non-essential amino acids. MDA-MB231 cells were grown in DMEM supplemented with 5% bovine serum. Cells were routinely maintained in a 5% CO2 incubator at 37° C.\nGeneral Procedure for Invasion Assay. MCF 10-CA1a or MDA-MB-231 breast cancer cells were treated with 1 or 5 μM of the compound being tested for 8 h. Cells were removed by trypsinizing and tested for their invasiveness by Boyden-chamber invasion assay. In the in vitro invasion/migration assays, a standard Matrigel-based assay, according to the manufacturer's (Becton-Dickinson) protocol, was used. Rehydrated Matrigel and control inserts were added to Falcon TC companion plates containing human fibronectin (30 μg/ml) as chemoattractant. Cellular suspensions (2×10^4 cells/0.5 ml) were added to individual wells of 24-well chambers (containing either control or Matrigel inserts), and the plates incubated (37° C., 5% CO2) in the presence of the compound being tested or vehicle for an additional 16-18 h. Non-invading or non-migrating cells were removed by scraping the top surfaces of the Matrigel and control inserts, respectively. The invading (or migrating) cells (on the bottom surface) were fixed (3.7% formaldehyde) and stained with Accustain (Sigma). The percent invasion was calculated as mean number of invading cells/the mean number of cells migrating through a control membrane×100.\nThe in vitro invasion through Matrigel was studied for two human breast cancer lines: MCF-10CA1a, a highly metastatic ER^+ line and MDA-MB-231, an ER^− line. […] At this concentration, SR13179 inhibited invasion of MDA-MB-231 by about 30% (and by 70% at 5 μM). To rule out a cytotoxic effect in the inhibition of invasion, a concurrent cytotoxicity assay was carried out and the number of viable cells was determined by MTT assay. There was less than 5% decrease in MDA-MB-231 cell viability at 5 μM concentration of SR13179 at 22 h. […]"}, "[13]": {"target": "T1, p38 MAPK (Homo sapiens, UniProt Q16539)", "T1 construct": "endogenous in cells; host or cells: MCF-7 human breast cancer cells", "T1 sequence (Q16539 whole entry)": "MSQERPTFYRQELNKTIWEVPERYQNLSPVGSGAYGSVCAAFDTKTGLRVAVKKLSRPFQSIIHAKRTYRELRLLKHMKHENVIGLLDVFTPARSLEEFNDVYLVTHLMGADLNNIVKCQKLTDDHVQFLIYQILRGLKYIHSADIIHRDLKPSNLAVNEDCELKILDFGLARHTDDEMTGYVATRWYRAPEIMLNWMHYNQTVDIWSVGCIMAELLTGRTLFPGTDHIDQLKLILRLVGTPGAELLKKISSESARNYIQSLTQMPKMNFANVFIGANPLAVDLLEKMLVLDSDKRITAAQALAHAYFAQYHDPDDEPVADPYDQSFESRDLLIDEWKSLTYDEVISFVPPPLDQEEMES", "assay": "Inhibition of p38 MAPK in MCF-7 cells", "type": "cell-based", "conditions": "MCF-7 human breast cancer cell line"}},
  "note": "Like-named read-outs stand apart in the source and are kept apart here.",
  "data": [
    {"smiles": "COc1cc(C2CC(O)c3ccc4ccccc4c3O2)cc(OC)c1OC", "note": "(stereo not shown) [SR 13179, 2-(3,4,5-trimethoxyphenyl)-3,4-dihydro-2H-benzo[h]chromen-4-ol]", "values": [
      {"measurement": "IC50", "setting": "[1]", "result": 3010, "unit": "nM"},
      {"measurement": "IC50", "setting": "[2]; 144 h, continuous exposure six days, read-out: IC50, growth inhibition, LNCaP", "result": 210, "unit": "nM"},
      {"measurement": "IC50", "setting": "[2]; Table 5, read-out: Growth Inhibition (IC50), LNCaP cells", "result": 210, "unit": "nM"},
      {"measurement": "IC50", "setting": "[3]", "result": 289, "unit": "nM"},
      {"measurement": "IC50", "setting": "[4]", "result": 281, "unit": "nM"},
      {"measurement": "IC50", "setting": "[5]", "result": 423, "unit": "nM"},
      {"measurement": "IC50", "setting": "[6]", "result": 1360, "unit": "nM"},
      {"measurement": "IC50", "setting": "[7]", "result": 364, "unit": "nM"},
      {"measurement": "IC50", "setting": "[8]", "result": 529, "unit": "nM"},
      {"measurement": "IC50", "setting": "[9]", "result": 266, "unit": "nM"},
      {"measurement": "IC50", "setting": "[10]", "result": 270, "unit": "nM"},
      {"measurement": "IC50", "setting": "[11]", "result": 510, "unit": "nM"},
      {"measurement": "Invasion", "setting": "[12]; 1 μM", "result": "10 % of Control"},
      {"measurement": "Migration", "setting": "[12]; 1 μM", "result": "70 % of Control"},
      {"measurement": "inhibition at 1 µM", "setting": "[12]; Homo sapiens, read-out: inhibition of invasion through Matrigel", "result": 90, "unit": "%"},
      {"measurement": "p38 MAPK", "setting": "[13]", "result": "inhibited"}
    ]}
  ]
}
